Assay results reported in US12391685B2, “Inhibitors of RNA-guided nuclease target binding and uses thereof” (THE BROAD INSTITUTE, INC., priority 2018, dated 2025).

Columns and labels:
FnCpf1 = FnCpf1 (Francisella tularensis subsp. novicida, UniProt A0Q7Q2); assay type: cell-based; settings: 6-20 μM, 30 h
SpCas9 = SpCas9 (Streptococcus pyogenes serotype M1, UniProt Q99ZW2); assay type: cell-based, S. pyogenes; set-up: made in house; host or cells: E. coli Rosetta (DE3); settings: not told
Excerpt: FIGS. 8A-8H—Structure-activity analysis and inhibition of dCas9-based transcriptional upregulation. (FIG. 8A) Structure-activity relationship studies of BRD3433 in the eGFP-disruption assay in U2OS.eGFP.PEST cells. The set of functional groups on top represents variation at the 1-N-cap position (R^1) whereas those at the bottom represents the functional group variation at the 8-position (R^2). Bar plot depicts the reduction in the activity of different structural analogs with respect to that of BRD3433. Asterisk-labeled compounds contain a methyl group at the 4-N position, while others have a proton. The data are an average of two biological replicates. (FIG. 8B) Inhibition of dSpCas9-based transcriptional upregulation of HBG1 gene in HEK293FT cells by BRD7087. Cells were transfected with dSpCas9, MS2.p65.HSF1.GFP plasmids along with either RFP or HBG1 gRNA plasmid and incubated in the presence of the small molecules at the indicated concentration for 48 h before RT-qPCR analysis. Data represents average of 6 technical replicates. Y-axis represents % fold change in the compound activity with respect to BRD7087. […] (FIG. 8D) Cellular impermeability of the anti-CRISPR protein AcrllA4 assessed by lack of SpCas9 inhibition in the eGFP-disruptoin assay when AcrLLA4 is incubated in the media. […] (FIG. 8F) Human plasma stability of compound as determined by UPLC/MS in MRM method. […]

[1] = target: T1, dCas9-based transcription-activation complex (Streptococcus pyogenes serotype M1, UniProt Q99ZW2, D10A, form not given); experiment: dCas9-based transcription activation of HBG1 in HEK293FT cells (RT-qPCR); assay type: cell-based, S. pyogenes; settings: 20 μM
T1 construct: "dSpCas9|Feng Zhang lab|NA"; The MS2-p65-HSF1(-GFP) effector is a separate chain recruited through MS2 aptamers in the sgRNA
Experimental: Transcription activation experiments and quantitative RT-PCR analyses. HEK293FT cells were maintained in high glucose DMEM with glutamax (Life Technologies) and supplemented with 10% FBS (Life Technologies), 1% penicillin-streptomycin (Life Technologies) and 1 mM sodium pyruvate (Life Technologies). For transcription activation experiments, 20,000 cells/well were plated in a poly D-lysine-coated 96-well plate. The cells were transiently transfected with a 1:1:1 mass ratio of the dCas9 plasmid, MS2-P65-HSF1 effector plasmid and the sgRNA plasmid targeting the HBG1 gene or an RFP control plasmid. A total of 0.3 μg plasmid DNA was transfected using Lipofectamine 2000 (Life Technologies) according to manufacturer's protocol. Immediately after transfection, the cells were treated with an appropriate dose of the small-molecule inhibitors. A DMSO solution of compound (20 mM) was resuspended in the 10% FBS containing growth media and thoroughly mixedbefore adding to the cells. After 48 h the cells were lysed and 5 μL of the cell lysate was used to perform reverse transcription using the RevertAid RT Reverse Transcription Kit (Thermo Fischer Scientific) as described by Joung J. et al. qPCR reactions were performed to quantify RNA expression using the TaqMan probes (Life Technologies, HBG1/HBG2: Hs00361131_g1, ACTB: Hs01060665_g1) and TaqMan Fast Advanced Master Mix (Life Technologies) in 5 μL multiplexed reactions and 384-well format using the LightCycler 480 Instrument II (Roche). For each sample, four technical replicates were performed. Data were analyzed using the LightCycler 480 software (Roche) by the ΔΔCt method: Ct values for the gene of interest (HBG1) were normalized to Ct values for the housekeeping gene (ACTB), and fold-changes in the expression level of gene of interest were normalized to RFP-transfected control. The data is reported as mean±S.E.M. for technical replicates.

Chain of SpCas9 (Q99ZW2 whole entry): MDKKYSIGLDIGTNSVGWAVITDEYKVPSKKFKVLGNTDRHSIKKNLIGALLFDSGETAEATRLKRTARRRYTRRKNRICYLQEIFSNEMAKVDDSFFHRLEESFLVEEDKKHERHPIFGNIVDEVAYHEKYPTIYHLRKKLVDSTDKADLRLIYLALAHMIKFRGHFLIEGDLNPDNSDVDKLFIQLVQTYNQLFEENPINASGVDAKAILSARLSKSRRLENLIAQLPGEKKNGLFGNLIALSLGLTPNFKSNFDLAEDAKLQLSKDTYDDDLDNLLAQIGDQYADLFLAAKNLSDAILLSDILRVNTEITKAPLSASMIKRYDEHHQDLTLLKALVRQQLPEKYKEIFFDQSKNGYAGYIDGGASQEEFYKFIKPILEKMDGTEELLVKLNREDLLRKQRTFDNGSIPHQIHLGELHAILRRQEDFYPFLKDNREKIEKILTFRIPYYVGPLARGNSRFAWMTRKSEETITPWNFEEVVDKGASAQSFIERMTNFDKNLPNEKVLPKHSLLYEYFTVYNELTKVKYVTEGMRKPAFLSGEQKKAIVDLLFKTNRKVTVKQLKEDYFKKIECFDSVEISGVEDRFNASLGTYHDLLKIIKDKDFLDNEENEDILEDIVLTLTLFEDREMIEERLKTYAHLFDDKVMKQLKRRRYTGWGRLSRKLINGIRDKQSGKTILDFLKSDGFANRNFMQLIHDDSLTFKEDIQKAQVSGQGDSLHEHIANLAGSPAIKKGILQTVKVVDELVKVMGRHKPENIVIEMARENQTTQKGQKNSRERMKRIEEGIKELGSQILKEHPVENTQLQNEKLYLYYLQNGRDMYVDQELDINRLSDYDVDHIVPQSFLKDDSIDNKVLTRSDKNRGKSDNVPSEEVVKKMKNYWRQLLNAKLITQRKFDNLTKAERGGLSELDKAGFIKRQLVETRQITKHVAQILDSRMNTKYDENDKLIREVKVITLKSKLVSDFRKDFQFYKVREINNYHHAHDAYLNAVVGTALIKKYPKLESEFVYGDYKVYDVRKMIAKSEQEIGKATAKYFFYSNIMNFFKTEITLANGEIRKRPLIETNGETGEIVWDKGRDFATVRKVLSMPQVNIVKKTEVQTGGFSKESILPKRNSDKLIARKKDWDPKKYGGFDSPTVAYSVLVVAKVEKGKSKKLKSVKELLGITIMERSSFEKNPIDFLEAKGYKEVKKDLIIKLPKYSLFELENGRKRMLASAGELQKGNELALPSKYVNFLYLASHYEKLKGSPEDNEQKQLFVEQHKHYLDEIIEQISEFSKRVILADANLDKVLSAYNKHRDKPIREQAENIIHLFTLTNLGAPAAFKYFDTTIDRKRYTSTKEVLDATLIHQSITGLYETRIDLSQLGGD
T1 sequence (Q99ZW2 whole entry, form open, one chain of several, change not shown): as the sequence (Q99ZW2 whole entry) above
Chain of FnCpf1 (A0Q7Q2 whole entry, looked up): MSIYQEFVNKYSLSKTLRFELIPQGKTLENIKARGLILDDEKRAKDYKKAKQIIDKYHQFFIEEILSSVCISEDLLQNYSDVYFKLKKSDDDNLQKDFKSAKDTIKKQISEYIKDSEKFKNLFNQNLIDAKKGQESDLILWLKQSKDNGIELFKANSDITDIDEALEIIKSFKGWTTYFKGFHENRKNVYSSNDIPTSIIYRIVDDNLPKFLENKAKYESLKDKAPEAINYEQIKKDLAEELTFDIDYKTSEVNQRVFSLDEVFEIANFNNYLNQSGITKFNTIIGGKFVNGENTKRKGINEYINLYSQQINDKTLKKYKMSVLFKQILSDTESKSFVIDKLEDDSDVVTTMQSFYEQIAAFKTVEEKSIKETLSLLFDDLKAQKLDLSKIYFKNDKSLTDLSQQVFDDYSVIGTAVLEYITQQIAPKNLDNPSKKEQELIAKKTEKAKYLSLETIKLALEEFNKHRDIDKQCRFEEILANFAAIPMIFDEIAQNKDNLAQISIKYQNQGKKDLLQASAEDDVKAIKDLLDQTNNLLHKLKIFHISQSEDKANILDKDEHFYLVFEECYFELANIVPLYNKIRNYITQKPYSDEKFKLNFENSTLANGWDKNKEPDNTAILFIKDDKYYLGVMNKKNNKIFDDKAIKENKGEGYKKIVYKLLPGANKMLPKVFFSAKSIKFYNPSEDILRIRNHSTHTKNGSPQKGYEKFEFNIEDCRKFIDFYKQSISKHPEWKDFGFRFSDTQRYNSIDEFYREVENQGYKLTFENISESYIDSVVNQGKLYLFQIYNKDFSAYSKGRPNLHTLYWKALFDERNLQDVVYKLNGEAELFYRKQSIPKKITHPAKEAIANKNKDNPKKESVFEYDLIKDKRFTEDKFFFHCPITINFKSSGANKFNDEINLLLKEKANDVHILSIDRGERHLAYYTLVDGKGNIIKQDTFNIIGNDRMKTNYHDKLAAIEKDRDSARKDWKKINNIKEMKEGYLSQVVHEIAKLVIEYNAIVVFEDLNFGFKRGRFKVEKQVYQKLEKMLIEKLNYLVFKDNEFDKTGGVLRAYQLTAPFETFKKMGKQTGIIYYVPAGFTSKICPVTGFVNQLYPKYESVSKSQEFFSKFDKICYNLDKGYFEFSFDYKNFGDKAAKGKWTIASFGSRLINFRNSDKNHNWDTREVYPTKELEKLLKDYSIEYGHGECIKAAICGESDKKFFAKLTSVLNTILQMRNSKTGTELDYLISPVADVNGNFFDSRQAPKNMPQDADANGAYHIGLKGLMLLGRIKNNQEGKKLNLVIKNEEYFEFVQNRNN

Row | Structure (SMILES) | inhibition of FnCpf1 (in words) (FnCpf1) | cell permeability (in words) (SpCas9) | inhibition of transcriptional activation [1] [%]
1 | Cc1ccc(S(=O)(=O)N2CC[C@@H]3[C@H](CO)Nc4ccc(-c5ccccc5F)cc4[C@@H]32)cc1 [BRD0539, ((3aR,4R,9bR)-8-(2-fluorophenyl)-1-tosyl-2,3,3a,4,5,9b-hexahydro-1H-pyrrolo[3,2-c]quinolin-4-yl) methanol] | unable to inhibit | cell permeable | –
2 | OC[C@H]1Nc2ccc(-c3cccc(F)c3)cc2[C@H]2[C@@H]1CCN2Cc1ccncc1 [BRD7087, ((3aR,4S,9bR)-8-(3-Fluorophenyl)-1-(pyridin-4-ylmethyl)-2,3,3a,4,5,9b-hexahydro-1H-pyrrolo[3,2-c]quinolin-4-yl) methanol] | – | – | ~60
